Measured values reported in PubChem BioAssay AID1963985 (Molecular Pharmacology Branch, DTP, NCI, 2024).
Values belong to the compound of their own block, whether it stands above or below them.

Tested on: 252836-082-R-J2-PDC tumor spheroids, viability
Test: Anticancer human tumor 252836-082-R-J2-PDC patient-derived head and neck squamous cell carcinoma cell line growth inhibition [PI3K]
Conditions: spheroids with HUVEC and MSC; for viability, T/C: stronger effect = lower value
How it was run: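 Combination activity was assessed by viability in multicellular tumor spheroids carrying HUVEC and MSC components. Agents were tested with PI3K inhibitors from a Cmax-based top dose (or 10 microM) downward in half-log increments.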

[1] = curve of first compound, second compound 0.0316 µM
[2] = curve of first compound, second compound 0.1 µM
[3] = curve of first compound, second compound 0.316 µM
[4] = curve of first compound, second compound 1 µM
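Note: spheroids exposed to agents for seven days before readout.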
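Throughout, for viability, T/C: percent of vehicle DMSO control viability so 100% = untreated growth.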

IC50 (curve of first compound, second compound 0.00316 µM): 5.21 µM
IC50 (curve of first compound, second compound 0.01 µM): 5.49 µM
IC50 [1]: 4.3 µM
IC50 [2]: 3.43 µM
IC50 [3]: 3.84 µM
IC50 [4]: < 0.0316 µM
Structure (SMILES): CCCS(=O)(=O)Nc1ccc(F)c(C(=O)c2c[nH]c3ncc(-c4ccc(Cl)cc4)cc23)c1F + CC(Nc1ccc2c(c1)OCCn1cc(N3C(=O)OCC3C(F)F)nc1-2)C(N)=O
viability, T/C (second compound 0.00316 µM, first compound 0.0316 µM): 98%
viability, T/C (second compound 0.00316 µM, first compound 0.1 µM): 90.1%
viability, T/C (second compound 0.00316 µM, first compound 0.316 µM): 102%
viability, T/C (second compound 0.00316 µM, first compound 1 µM): 103%
viability, T/C (second compound 0.00316 µM, first compound 3.16 µM): 84.1%
viability, T/C (second compound 0.00316 µM, first compound 10 µM): 5.37%
viability, T/C (second compound 0.01 µM, first compound 0.0316 µM): 80.5%
viability, T/C (second compound 0.01 µM, first compound 0.1 µM): 88.5%
viability, T/C (second compound 0.01 µM, first compound 0.316 µM): 97.6%
viability, T/C (second compound 0.01 µM, first compound 1 µM): 100%
viability, T/C (second compound 0.01 µM, first compound 3.16 µM): 92.3%
viability, T/C (second compound 0.01 µM, first compound 10 µM): 4.83%
viability, T/C (second compound 0.0316 µM, first compound 0.0316 µM): 76.3%
viability, T/C (second compound 0.0316 µM, first compound 0.1 µM): 90%
viability, T/C (second compound 0.0316 µM, first compound 0.316 µM): 87%
viability, T/C (second compound 0.0316 µM, first compound 1 µM): 91.2%
viability, T/C (second compound 0.0316 µM, first compound 3.16 µM): 66.9%
viability, T/C (second compound 0.0316 µM, first compound 10 µM): 3.26%
viability, T/C (second compound 0.1 µM, first compound 0.0316 µM): 71.9%
viability, T/C (second compound 0.1 µM, first compound 0.1 µM): 77.4%
viability, T/C (second compound 0.1 µM, first compound 0.316 µM): 69.1%
viability, T/C (second compound 0.1 µM, first compound 1 µM): 66.4%
viability, T/C (second compound 0.1 µM, first compound 3.16 µM): 54.5%
viability, T/C (second compound 0.1 µM, first compound 10 µM): 4.8%
viability, T/C (second compound 0.316 µM, first compound 0.0316 µM): 64.4%
viability, T/C (second compound 0.316 µM, first compound 0.1 µM): 67.4%
viability, T/C (second compound 0.316 µM, first compound 0.316 µM): 65.8%
viability, T/C (second compound 0.316 µM, first compound 1 µM): 48.9%
viability, T/C (second compound 0.316 µM, first compound 3.16 µM): 59.7%
viability, T/C (second compound 0.316 µM, first compound 10 µM): 4.86%
viability, T/C (second compound 1 µM, first compound 0.0316 µM): 49.1%
viability, T/C (second compound 1 µM, first compound 0.1 µM): 48.2%
viability, T/C (second compound 1 µM, first compound 0.316 µM): 46%
viability, T/C (second compound 1 µM, first compound 1 µM): 46.2%
viability, T/C (second compound 1 µM, first compound 3.16 µM): 41.3%
viability, T/C (second compound 1 µM, first compound 10 µM): 5.27%

IC50 (curve of compound): > 10 µM
Structure (SMILES): C#Cc1c(F)ccc2cc(O)cc(-c3ncc4c(N5CC6CCC(C5)N6)nc(OCC56CCCN5CC(F)C6)nc4c3F)c12 (stereo not given)
viability, T/C (compound 0.0316 µM): 89.5% [middle of 4 runs]
viability, T/C (compound 1 µM): 87.9% [middle of 4 runs]
viability, T/C (compound 3.16 µM): 83.4% [middle of 4 runs]
viability, T/C (compound 10 µM): 67.8% [middle of 4 runs]

IC50 [1]: > 3 µM
IC50 [2]: 2.41 µM
IC50 [3]: 1.46 µM
IC50 [4]: 0.554 µM
IC50 (curve of first compound, second compound 3.16 µM): < 0.00949 µM
IC50 (curve of first compound, second compound 10 µM): < 0.00949 µM
Structure (SMILES): Cn1cnc2c(F)c(Nc3ccc(Br)cc3Cl)c(C(=O)NOCCO)cc21 + Cc1nc(NC(=O)N2CCCC2C(N)=O)sc1-c1ccnc(C(C)(C)C(F)(F)F)c1
viability, T/C (second compound 0.0316 µM, first compound 0.00949 µM): 93%
viability, T/C (second compound 0.0316 µM, first compound 0.03 µM): 67.1%
viability, T/C (second compound 0.0316 µM, first compound 0.0949 µM): 83%
viability, T/C (second compound 0.0316 µM, first compound 0.3 µM): 82.7%
viability, T/C (second compound 0.0316 µM, first compound 0.949 µM): 61.2%
viability, T/C (second compound 0.0316 µM, first compound 3 µM): 58.4%
viability, T/C (second compound 0.1 µM, first compound 0.00949 µM): 79.9%
viability, T/C (second compound 0.1 µM, first compound 0.03 µM): 74.5%
viability, T/C (second compound 0.1 µM, first compound 0.0949 µM): 73.3%
viability, T/C (second compound 0.1 µM, first compound 0.3 µM): 85.1%
viability, T/C (second compound 0.1 µM, first compound 0.949 µM): 67.9%
viability, T/C (second compound 0.1 µM, first compound 3 µM): 45.4%
viability, T/C (second compound 0.316 µM, first compound 0.00949 µM): 66.9%
viability, T/C (second compound 0.316 µM, first compound 0.03 µM): 68.1%
viability, T/C (second compound 0.316 µM, first compound 0.0949 µM): 65.2%
viability, T/C (second compound 0.316 µM, first compound 0.3 µM): 68.3%
viability, T/C (second compound 0.316 µM, first compound 0.949 µM): 55.7%
viability, T/C (second compound 0.316 µM, first compound 3 µM): 37.5%
viability, T/C (second compound 1 µM, first compound 0.00949 µM): 61.7%
viability, T/C (second compound 1 µM, first compound 0.03 µM): 50.1%
viability, T/C (second compound 1 µM, first compound 0.0949 µM): 51%
viability, T/C (second compound 1 µM, first compound 0.3 µM): 47.6%
viability, T/C (second compound 1 µM, first compound 0.949 µM): 50.1%
viability, T/C (second compound 1 µM, first compound 3 µM): 28.9%
viability, T/C (second compound 3.16 µM, first compound 0.00949 µM): 45.8%
viability, T/C (second compound 3.16 µM, first compound 0.03 µM): 45.6%
viability, T/C (second compound 3.16 µM, first compound 0.0949 µM): 32.2%
viability, T/C (second compound 3.16 µM, first compound 0.3 µM): 35.8%
viability, T/C (second compound 3.16 µM, first compound 0.949 µM): 25.8%
viability, T/C (second compound 3.16 µM, first compound 3 µM): 13.8%
viability, T/C (second compound 10 µM, first compound 0.00949 µM): 26.7%
viability, T/C (second compound 10 µM, first compound 0.03 µM): 29.4%
viability, T/C (second compound 10 µM, first compound 0.0949 µM): 25.8%
viability, T/C (second compound 10 µM, first compound 0.3 µM): 19.4%
viability, T/C (second compound 10 µM, first compound 0.949 µM): 14.2%
viability, T/C (second compound 10 µM, first compound 3 µM): 5.98%

IC50 (curve of compound): > 1 µM
Structure (SMILES): CCN1CCN(Cc2ccc(Nc3ncc(F)c(-c4cc(F)c5nc(C)n(C(C)C)c5c4)n3)nc2)CC1
viability, T/C (compound 0.00316 µM): 99.2% [middle of 4 runs]
viability, T/C (compound 0.01 µM): 91.3% [middle of 4 runs]
viability, T/C (compound 0.0316 µM): 94.5% [middle of 4 runs]
viability, T/C (compound 0.1 µM): 95.2% [middle of 4 runs]
viability, T/C (compound 0.316 µM): 91.5% [middle of 4 runs]
